Measurements: US8134015B2, “Compound inhibiting in vivo phosphorous transport and medicine containing the same” (Kyowa Hakko Kirin Co., Ltd., priority 2003, dated 2012)

molecular target: T1, rat NaPi-2b (Rattus norvegicus, UniProt Q9JJ09); assay: Sodium-dependent phosphate uptake of Xenopus oocytes which expressed NaPi-2b (32P); assay type: cell-based; conditions: Xenopus oocytes expressing rat NaPi-2b, 32P radioactive phosphorus; read-out: IC50 (phosphate uptake inhibitory activity)
T1 construct: expressed in transfected cells; host or cells: Xenopus oocytes injected with cRNA
T1 sequence (Q9JJ09 1-695): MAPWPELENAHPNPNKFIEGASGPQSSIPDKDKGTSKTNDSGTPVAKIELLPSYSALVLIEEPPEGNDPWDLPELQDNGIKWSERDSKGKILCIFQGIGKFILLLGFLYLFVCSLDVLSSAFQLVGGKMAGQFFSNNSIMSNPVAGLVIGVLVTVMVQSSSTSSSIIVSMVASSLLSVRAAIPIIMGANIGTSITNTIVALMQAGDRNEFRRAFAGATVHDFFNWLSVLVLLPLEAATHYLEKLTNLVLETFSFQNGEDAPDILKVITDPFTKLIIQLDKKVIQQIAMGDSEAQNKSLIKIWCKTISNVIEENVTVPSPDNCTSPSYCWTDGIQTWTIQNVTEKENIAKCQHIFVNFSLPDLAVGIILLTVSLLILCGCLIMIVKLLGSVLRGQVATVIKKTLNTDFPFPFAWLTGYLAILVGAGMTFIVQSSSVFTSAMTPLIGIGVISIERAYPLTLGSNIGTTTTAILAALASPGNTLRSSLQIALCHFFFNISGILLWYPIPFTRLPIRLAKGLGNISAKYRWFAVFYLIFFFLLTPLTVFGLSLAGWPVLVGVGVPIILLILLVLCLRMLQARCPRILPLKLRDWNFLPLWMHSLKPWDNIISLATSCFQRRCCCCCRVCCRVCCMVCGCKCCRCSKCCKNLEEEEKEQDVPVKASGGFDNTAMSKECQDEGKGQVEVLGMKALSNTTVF
Method in brief: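 Inhibition at 300 μM and 100 μM was read off one inhibition curve of 32P phosphate uptake. Uptake was measured in Xenopus oocytes cultured 2 days after injection of cRNA for cloned rat NaPi-2b.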

Going from O=C(Nc1ccc(Br)cc1C(=O)N/N=C/c1ccc(F)cc1)c1ccc(CN2CCN(CCO)CC2)cc1 [Compound 319, N-[4-Bromo-2-(4-fluoro-benzylidene-hydrazinocarbonyl)-phenyl]-4-[4-(2-hydroxy-ethyl)-piperazin-1-ylmethyl]-benzamide] to COc1ccc(/C=N/NC(=O)c2cc(Br)ccc2NC(=O)c2ccc(CN3CCN(CCO)CC3)cc2)cc1 [Compound 322, N-[4-Bromo-2-(4-methoxy-benzylidene-hydrazinocarbonyl)-phenyl]-4-[4-(2-hydroxy-ethyl)-piperazin-1-ylmethyl]-benzamide], the IC50 falls from 9.76 µM to 5.93 µM (1.6-fold). The second is the more potent here.

O=C(Nc1ccc(Br)cc1C(=O)N/N=C/c1cccc(F)c1)c1ccc(CN2CCN(CCO)CC2)cc1 [Compound 320, N-[4-Bromo-2-(3-fluoro-benzylidene-hydrazinocarbonyl)-phenyl]-4-[4-(2-hydroxy-ethyl)-piperazin-1-ylmethyl]-benzamide] and COc1cccc(/C=N/NC(=O)c2cc(Br)ccc2NC(=O)c2ccc(CN3CCN(CCO)CC3)cc2)c1 [Compound 323, N-[4-Bromo-2-(3-methoxy-benzylidene-hydrazinocarbonyl)-phenyl]-4-[4-(2-hydroxy-ethyl)-piperazin-1-ylmethyl]-benzamide] are within 1.5-fold of each other in IC50: 4.09 µM for the first, 4.69 µM for the second.

First: O=C(Nc1ccc(Br)cc1C(=O)N/N=C/c1ccc(Cl)c(C(F)(F)F)c1)c1ccc(CN2CCN(CCO)CC2)cc1 [Compound 321, N-[4-Bromo-2-(4-chloro-3-trifluoromethyl-benzylidene-hydrazinocarbonyl)-phenyl]-4-[4-(2-hydroxy-ethyl)-piperazin-1-ylmethyl]-benzamide]
Second: O=C(Nc1ccc(Br)cc1C(=O)N/N=C/c1ccc(Cl)c(C(F)(F)F)c1)c1ccc(CN2CCC(CO)CC2)cc1 [Compound 337, N-[4-Bromo-2-(4-chloro-3-trifluoromethyl-benzylidene-hydrazinocarbonyl)-phenyl]-4-(4-hydroxymethyl-piperidin-1-ylmethyl)-benzamide]
The IC50 of the first is 1.9-fold higher: 2.66 µM for the first, 1.39 µM for the second.

First: Cc1ccc(/C=N/NC(=O)c2cc(Br)ccc2NC(=O)c2ccc(CN3CCC(O)CC3)cc2)cc1C [Compound 324, N-[4-Bromo-2-(3,4-dimethyl-benzylidene-hydrazinocarbonyl)-phenyl]-4-(4-hydroxy-piperidin-1-ylmethyl)-benzamide]
Second: Cc1ccc(/C=N/NC(=O)c2cc(Br)ccc2NC(=O)c2ccc(CN3CCC(CO)CC3)cc2)cc1C [Compound 332, N-[4-Bromo-2-(3,4-dimethyl-benzylidene-hydrazinocarbonyl)-phenyl]-4-(4-hydroxymethyl-piperidin-1-ylmethyl)-benzamide]
The IC50 of the first is 1.5-fold higher: 4.43 µM for the first, 2.87 µM for the second. The second is the more potent here.

Compared with Cc1ccc(/C=N/NC(=O)c2cc(Br)ccc2NC(=O)c2ccc(CN3CCC(O)CC3)cc2)cc1 [Compound 325, N-[4-Bromo-2-(4-methyl-benzylidene-hydrazinocarbonyl)-phenyl]-4-(4-hydroxy-piperidin-1-ylmethyl)-benzamide], O=C(Nc1ccc(Br)cc1C(=O)N/N=C/c1ccc(F)cc1)c1ccc(CN2CCC(O)CC2)cc1 [Compound 327, N-[4-Bromo-2-(4-fluoro-benzylidene-hydrazinocarbonyl)-phenyl]-4-(4-hydroxy-piperidin-1-ylmethyl)-benzamide] is 2-fold higher in IC50: 2.56 µM for the first, 5.12 µM for the second. The first is the more potent here.

First: Cc1cccc(/C=N/NC(=O)c2cc(Br)ccc2NC(=O)c2ccc(CN3CCC(O)CC3)cc2)c1 [Compound 326, N-[4-Bromo-2-(3-methyl-benzylidene-hydrazinocarbonyl)-phenyl]-4-(4-hydroxy-piperidin-1-ylmethyl)-benzamide]
Second: O=C(Nc1ccc(Br)cc1C(=O)N/N=C/c1cccc(F)c1)c1ccc(CN2CCC(O)CC2)cc1 [Compound 328, N-[4-Bromo-2-(3-fluoro-benzylidene-hydrazinocarbonyl)-phenyl]-4-(4-hydroxy-piperidin-1-ylmethyl)-benzamide]
The IC50 of the first is 1.8-fold higher: 2.1 µM for the first, 1.15 µM for the second. The second is the more potent here.

Going from O=C(Nc1ccc(Br)cc1C(=O)N/N=C/c1ccc(Cl)c(C(F)(F)F)c1)c1ccc(CN2CCC(O)CC2)cc1 [Compound 329, N-[4-Bromo-2-(4-chloro-3-trifluoromethyl-benzylidene-hydrazinocarbonyl)-phenyl]-4-(4-hydroxy-piperidin-1-ylmethyl)-benzamide] to COc1cccc(/C=N/NC(=O)c2cc(Br)ccc2NC(=O)c2ccc(CN3CCC(O)CC3)cc2)c1 [Compound 331, N-[4-Bromo-2-(3-methoxy-benzylidene-hydrazinocarbonyl)-phenyl]-4-(4-hydroxy-piperidin-1-ylmethyl)-benzamide], the IC50 rises from 5.63 µM to 15.8 µM (2.8-fold). The first is the more potent here.

Compared with COc1ccc(/C=N/NC(=O)c2cc(Br)ccc2NC(=O)c2ccc(CN3CCC(O)CC3)cc2)cc1 [Compound 330, N-[4-Bromo-2-(4-methoxy-benzylidene-hydrazinocarbonyl)-phenyl]-4-(4-hydroxy-piperidin-1-ylmethyl)-benzamide], COc1ccc(/C=N/NC(=O)c2cc(Br)ccc2NC(=O)c2ccc(CN3CCC(CO)CC3)cc2)cc1 [Compound 338, N-[4-Bromo-2-(4-methoxy-benzylidene-hydrazinocarbonyl)-phenyl]-4-(4-hydroxymethyl-piperidin-1-ylmethyl)-benzamide] is 1.8-fold higher in IC50: 10.7 µM for the first, 19 µM for the second.

Compared with Cc1ccc(/C=N/NC(=O)c2cc(Br)ccc2NC(=O)c2ccc(CN3CCC(CO)CC3)cc2)cc1 [Compound 333, N-[4-Bromo-2-(4-methyl-benzylidene-hydrazinocarbonyl)-phenyl]-4-(4-hydroxymethyl-piperidin-1-ylmethyl)-benzamide], O=C(Nc1ccc(Br)cc1C(=O)N/N=C/c1ccc(F)cc1)c1ccc(CN2CCC(CO)CC2)cc1 [Compound 335, N-[4-Bromo-2-(4-fluoro-benzylidene-hydrazinocarbonyl)-phenyl]-4-(4-hydroxymethyl-piperidin-1-ylmethyl)-benzamide] is 2.9-fold lower in IC50: 17.2 µM for the first, 5.86 µM for the second.

First: Cc1cccc(/C=N/NC(=O)c2cc(Br)ccc2NC(=O)c2ccc(CN3CCC(CO)CC3)cc2)c1 [Compound 334, N-[4-Bromo-2-(3-methyl-benzylidene-hydrazinocarbonyl)-phenyl]-4-(4-hydroxymethyl-piperidin-1-ylmethyl)-benzamide]
Second: O=C(Nc1ccc(Br)cc1C(=O)N/N=C/c1cccc(F)c1)c1ccc(CN2CCC(CO)CC2)cc1 [Compound 336, N-[4-Bromo-2-(3-fluoro-benzylidene-hydrazinocarbonyl)-phenyl]-4-(4-hydroxymethyl-piperidin-1-ylmethyl)-benzamide]
The IC50 of the first is 2.2-fold lower: 7.69 µM for the first, 16.6 µM for the second. The first is the more potent here.

First: COc1cccc(/C=N/NC(=O)c2cc(Br)ccc2NC(=O)c2ccc(CN3CCC(CO)CC3)cc2)c1 [Compound 339, N-[4-Bromo-2-(3-methoxy-benzylidene-hydrazinocarbonyl)-phenyl]-4-(4-hydroxymethyl-piperidin-1-ylmethyl)-benzamide]
Second: Cc1ccc(/C=N/NC(=O)c2cc(Br)ccc2NC(=O)c2ccc(CN3CCC(CCO)CC3)cc2)cc1C [Compound 340, N-[4-Bromo-2-(3,4-dimethyl-benzylidene-hydrazinocarbonyl)-phenyl]-4-[4-(2-hydroxy-ethyl)-piperidin-1-ylmethyl]-benzamide]
The IC50 of the first is 1.5-fold higher: 12.8 µM for the first, 8.41 µM for the second. The second is the more potent here.

Going from O=C(Nc1ccc(Br)cc1C(=O)N/N=C/c1cccc(F)c1)c1cccc(C[S+]([O-])c2nc[nH]n2)c1 (stereo not shown) [Compound 341, N-[4-Bromo-2-(3-fluoro-benzylidene-hydrazinocarbonyl)-phenyl]-3-(1H-[1,2,4]triazole-3-sulfinylmethyl)-benzamide] to O=C(Nc1ccc(Br)cc1C(=O)N/N=C/C=C/c1ccccc1)c1cccnc1 [Compound 346, N-[4-Bromo-2-(3-phenyl-allylidene-hydrazinocarbonyl)-phenyl]-nicotinamide], the IC50 rises from under 3 µM to 4.46 µM.

Compared with CCN(CC)CCN(C)Cc1cccc(C(=O)Nc2c(C)csc2C(=O)N/N=C/c2ccc(C)c(C)c2)c1 [Compound 342, 3-{[(2-Diethylamino-ethyl)-methyl-amino]-methyl}-N-[2-(3,4-dimethyl-benzylidene-hydrazinocarbonyl)-4-methyl-thiophen-3-yl]-benzamide], CCN(CC)CCN(C)Cc1cccc(C(=O)Nc2c(C)csc2C(=O)N/N=C/c2ccc(C)cc2)c1 [Compound 343, 3-{[(2-Diethylamino-ethyl)-methyl-amino]-methyl}-N-[4-methyl-2-(4-methyl-benzylidene-hydrazinocarbonyl)-thiophen-3-yl]-benzamide] is 3.8-fold higher in IC50: 32.6 µM for the first, 124 µM for the second. The first is the more potent here.

First: CCN(CC)CCN(C)Cc1cccc(C(=O)Nc2c(C)csc2C(=O)N/N=C/c2ccc(Cl)c(C(F)(F)F)c2)c1 [Compound 344, N-[2-(4-Chloro-3-trifluoromethyl-benzylidene-hydrazinocarbonyl)-4-methyl-thiophen-3-yl]-3-{[(2-diethylamino-ethyl)-methyl-amino]-methyl}-benzamide]
Second: Cc1ccc(/C=N/NC(=O)c2scc(C)c2NC(=O)c2cccc(CN3CCC(N4CCCCC4)CC3)c2)cc1C [Compound 345, 3-[1,4′]Bipiperidinyl-1′-ylmethyl-N-[2-(3,4-dimethyl-benzylidene-hydrazinocarbonyl)-4-methyl-thiophen-3-yl]-benzamide]
The IC50 of the first is 4.2-fold lower: 31 µM for the first, 130 µM for the second.
